Series [1] deals with Hep3b2.1-7 tumours. Kind of series: orthotopic Hep3b2.1-7 human liver cancer model. It counts as in vivo, mice. As for the experimental part:
(§1) In the orthotopic Hep3b2.1-7 human liver cancer model, treatment of mice (n=10) began 14 days after inoculation of 2.5 × 10^6 cells. […] To initiate tumour xenografts, MDA-MB-231, PC3, Cal27 and HepG2 cells were injected s.c. into nude mice (n=8) at 4, 5, 2 and 2 × 10^7 cells ml^−1, respectively. […] In the B16F0 lung metastasis model, 2 × 10^5 cells were injected via the tail vein of C57Bl6 mice (n=8). […] Surface lung macrometastases were counted for each group (n=9) upon study termination. In the intrasplenic HT-29 xenograft model, 1 × 10^6 cells in 100 μl were injected into the spleen. […] Solid tumours were measured in two dimensions (length and width) and the tumour volume (cm^3) was calculated using the equation: V=length × width^2 × π/6. The anti-tumour activity was expressed as percent tumour growth inhibition (%TGI). Further details are available in Supplementary Methods. […]
In the Hep3b2.1-7 model, the cells resuspended in HBSS:MatrigelTM (1:1, v/v) to a final concentration of 5 x 10^8 cells/mL were inoculated following an incision into the skin directly over the liver to expose the main lobe of the liver. The needle was introduced into the main lobe of the liver, where 2.5 x 106 Hep3b2.1-7 cells (in 5 µL with 50% Matrigel) were discharged. The treatment of mice began 24 days after inoculation of the […]
either a once or twice weekly dosing schedule (see figure legends for dose schedules in each study) for up to three weeks. […]
efficacy/PK study) using either a once or twice weekly dosing schedule (see figure legends for dose schedules in each study) for up to three weeks. […]
In relevant models, solid tumours were measured in two dimensions (length and width) and the tumour volume (mm3) calculated using the equation V = length × width2 × π/6.The anti-tumour activity was assessed by the comparison of the mean tumour volume of the treated groups to the mean tumour volume of the control group and expressed as the percent Tumour Growth Inhibition (TGI) using the equation:
%TGI = (1-((VendPG545 - VstartPG545) / (VendControl - VstartControl)))*100 VendPG545 = Ending Tumour Volume of PG545-treated animal
VstartPG545 = Starting Tumour Volume of PG545-treated animal
VendControl = Ending Tumour Volume of Control animal
VstartControl = Starting Tumour Volume of Control animal […]
After collection, 0.2 mL of […]
whole blood was added to a glass scintillation vial to which 1 mL Solvable was added.
Samples were incubated for one hour at 55-60°C. 0.1 mL of 0.1 M EDTA-di-sodium salt solution and 0.3 mL to 0.5 mL of 30% hydrogen peroxide in 0.1 mL aliquots were added to the sample. Samples were gently agitated between additions to allow reaction foaming to subside. Samples were incubated for 30 minutes at room temperature. […]

The nature of series [2]: body weight loss in tumour-bearing mice. The class given is in vivo. Particulars: for body weight loss at the end of the study: MDA-MB-231 model.
In series [3] the test system is PC3 tumours. The experiment in a line: PC3 prostate xenograft model. It counts as in vivo, nude mice. How it is done: as §1
antibody. […]
staining. For quantification, three independent visual fields (20x magnification) were chosen and positive stained spots or vessels with identifiable lumen were counted.
Angiogenesis inhibition and induction were calculated using the equations: […]
regimen both before and after tumour cell inoculation (days -6, -3, 0, +3, +6) or only after tumour cell inoculation (days 0, +3, +6). B16 cell (2x105) were inoculated via tail vein injections and mice were culled and assessed for lung metastases on day 12. […]

Series [4] has as its system angiogenesis (endothelial cells, rat aortic ring). The arrangement: method as in Dredge et al, 2010. Particulars: endothelial cell assays in vitro and ex vivo rat aortic ring assay; ref Dredge et al, 2010; cited from earlier work.

One may read the TGI as the reduction of tumour growth relative to the control group. Read a high TGI as a stronger effect on the tumour. `CC(C)CCC[C@@H](C)[C@H]1CCC2C3CCC4C[C@@H](O[C@@H]5O[C@H](COS(=O)(=O)[O-])[C@@H](O[C@H]6O[C@H](COS(=O)(=O)[O-])[C@@H](O[C@H]7O[C@H](COS(=O)(=O)[O-])[C@@H](O[C@H]8O[C@H](COS(=O)(=O)[O-])[C@@H](OS(=O)(=O)[O-])[C@H](OS(=O)(=O)[O-])[C@H]8OS(=O)(=O)[O-])[C@H](OS(=O)(=O)[O-])[C@H]7OS(=O)(=O)[O-])[C@H](OS(=O)(=O)[O-])[C@H]6OS(=O)(=O)[O-])[C@H](OS(=O)(=O)[O-])[C@H]5OS(=O)(=O)[O-])CC[C@]4(C)C3CC[C@@]21C.[Na+].[Na+].[Na+].[Na+].[Na+].[Na+].[Na+].[Na+].[Na+].[Na+].[Na+].[Na+].[Na+]` (some centres unmarked) [PG545]: the TGI in series [1] (20 mg kg^−1 loading dose then 10 mg kg^−1 twice-weekly) came out at 55%; in series [1] (20 mg kg^−1 twice-weekly s.c.), 52%; in series [1] (once-weekly 20 mg kg^−1 followed by 10 mg kg^−1), 65%; in series [3] (20 mg kg^−1 once-weekly s.c.), 74%; in series [3] (20 mg kg^−1 twice-weekly s.c.), 83%. Further, the “body weight loss nadir” value in series [2] (B16 model) was found to be 8%; in series [2] (HT-29 model), 12%. The body weight loss in series [2] (Hep3b2.1-7 model, 20 mg kg^−1 followed by twice-weekly 10 mg kg^−1) worked out at 4%; in series [2] (Hep3b2.1-7 model, 20 mg kg^−1 twice-weekly), 9%; in series [2] (PC3 model, 20 mg kg^−1 once-weekly), 6%; in series [2] (PC3 model, 20 mg kg^−1 twice-weekly), 16%. Also, the “body weight nadir (loss)” value in series [2] (LL/2 model) is recorded as 5%. The “body weight loss at the end of the study” value is 4% in series [2] (20 mg kg^−1 once-weekly), 6% in series [2] (20 mg kg^−1 twice-weekly), 11% in series [2] (30 mg kg^−1 once-weekly) and 10% in series [2] (30 mg kg^−1 twice-weekly). Also, the angiogenesis inhibitor potency in series [4] is at most 1000 nM.

Values taken from publication PMC3049593 (British Journal of Cancer, 2011).
